# Results from patent publication US20090181910A1, “METHOD OF PREVENTION AND ALLEVIATION OF TOXICITY BY MODULATION OF IRF3” (priority 2006, published 2009).
# Tests used:
# [1] = Hendrix et al. 1993; cited from earlier work
# Huh7 cells = assay: Rhodamine 123 assay, mitochondrial membrane potential; format: cell-based, human; conditions: Huh7 cells co-treated with ASA 20 μg/ml and polyI:C 1 μg/ml transfected, 24 hours; mock-transfected vs RXRα overexpressing
# Procedure: FIG. 15: PolyI:C potentiation of ASA-induced mitochondrial damage. pBabe-Huh7 cells (Huh7_MT) and pBabe-RXRα-Huh7 cells (Huh7 RXRα) were stimulated with Control (DMSO) and ASA (20 μg/ml) with or without polyI:C (1 μg/ml, transfected) for 24 hours. Cells were treated with 5 μg/ml of rhodamine 123 (Invitrogen) for 30 min, trypsinized and resuspended in PBS. Flow cytometry was done to determine rhodamine 123 uptake.
# [2] = H&E liver histology in APAP hepatotoxicity; conditions: for prevention of APAP-induced necrosis: FIG. 3A
# Cyp3A11 [3] = assay: Liver RNA Q-PCR, polyI:C/APAP-treated mice: Cyp3A11; conditions: polyI:C 100 μg i.v.; FIG. 1C
# Cyp1A2 = assay: Liver RNA Q-PCR, polyI:C/APAP-treated mice: Cyp1A2; conditions: polyI:C 100 μg i.v.; FIG. 1B
# RXRα [4] = assay: RAW264.7 cells with siHes1, Q-PCR: RXRα mRNA; format: cell-based, murine; conditions: siRNA specific to Hes1, polyI:C 1 μg/ml 8 hours; FIG. 9d
# CYP3A4 = assay: Huh7 Q-PCR: CYP3A4
# ZNF202 = assay: BMM Q-PCR: ZNF202 mRNA; format: cell-based, Murine; conditions: polyI:C and LPS; data not shown
# RXRα [5] = test system: RXRα; parameters: species or system mice; conditions: mouse, in vivo
# CRBPII = assay: RAW 264.7 Q-PCR: CRBPII; format: cell-based, murine
# RXRα promoter region = assay: ChIP of Hes1 and HDAC1 in BMMs; format: cell-based, Murine; conditions: polyI:C 1 μg/ml 1, 3 and 6 hours; FIG. 9e,f
# Procedure: FIG. 9: PolyI:C transcriptionally represses RXRα through recruitment of transcriptional repression machinery. a, BMMs were stimulated with media or polyI:C (1 μg/ml) for 2 hrs, followed by actinomycin D (ActD) (5 μg/ml) for 0, 15, 30, 60, 120 min. BMMs were stimulated with polyI:C (1 μg/ml) for 4 hrs or 8 hrs. RNA was analyzed by Q-PCR. b, Diagram of RXRα promoter based on promoter analysis software (MatInspector). BMMs were stimulated with LPS (10 ng/ml) or polyI:C (1 μg/ml) for 4 hrs. RNA was analyzed by Q-PCR. Wildtype, IRF3^−/− and IFNAR^−/− BMMs were stimulated with polyI:C (1 μg/ml) for 4 hrs. RNA was analyzed by Q-PCR. c, pCMV-RAW 264.7 cells (MT) or pCMV-Hes1-RAW 264.7 cells (Hes1) RNA was analyzed by Q-PCR. d, RAW264.7 cells transfected with siNS or siHes1 duplex oligos were stimulated with polyI:C (1 μg/ml) for 8 hours. RNA was analyzed by Q-PCR. e, f, BMMs were stimulated with polyI:C (1 μg/ml) for 1, 3 and 6 hours. Following stimulation, chromatin immunoprecipitation (ChIP) was performed with anti-Hes1 or anti-HDAC1 antibodies on sonicated samples, washed thoroughly and analyzed by PCR/agarose gel electrophoresis. PCR products on gel are quantified by ImageJ, normalized to Input. g, BMMs were pre-treated with Trichostatin A (TSA) (50 ng/ml) overnight and then stimulated with polyI:C (1 μg/ml) for 4 and 8 hrs. RNA was analyzed by Q-PCR. […]
# [6] = mouse, in vivo
# RXRα [7] = assay: BMM anti-RXRα Western blot; format: cell-based, Murine; conditions: polyI:C and LG268 treatment, 24 hrs; FIG. 8e
# Cyp3A11 [8] = conditions: mouse, in vivo
# [9] = Serum ALT in APAP hepatotoxicity
# [10] = mouse, in vivo; remark: listed apart in the source
substance,measurement,setting,value
polyinosinic:polycytidylic acid [polyI:C],toxicity of polyI:C,[1],can be taken at high dosages without any toxicity
same,mitochondrial membrane potential (rhodamine 123),Huh7 cells,"loss of mitochondrial membrane potential in mock-transfected Huh7 cells co-treated with ASA and polyI:C, but not in Huh7 cells overexpressing RXRα"
same,prevention of cell necrosis,"[2]; PCN or ethanol plus lower levels of APAP, FIG. 3B",prevents cell necrosis in these treatments as well
same,prevention of APAP-induced necrosis,"[2]; mice deficient in IRF3, APAP 350 mg/kg",only slightly reduced the severity of necrosis
same,prevention of APAP-induced necrosis,"[2]; wildtype mice, APAP 350 mg/kg",completely prevented such necrosis
same,basal Cyp3A11 mRNA level in liver,Cyp3A11 [3],potently repressed
same,basal Cyp1A2 mRNA level in liver,Cyp1A2,potently repressed
same,polyI:C-mediated repression of RXRα with Hes1 knockdown,RXRα [4],requirement of Hes1 in polyI:C-mediated repression of RXRα
same,rifampicin induction of CYP3A4,"CYP3A4; Huh7 cells with RXRα overexpression, FIG. 10e",no longer repressed CYP3A4
same,rifampicin induction of CYP3A4,"CYP3A4; Huh7 cells, rifampicin 25 μM, transfected polyI:C 2 μg/ml",capable of repressing rifampicin induction
same,ZNF202 mRNA levels,ZNF202,unaffected
same,IRF3 dependence of repression of RXRα and hepatic nuclear receptor target genes,RXRα [5],IRF3 was critical for the repression of RXRα and hepatic nuclear receptor target genes
same,RXRα mRNA expression in liver,RXRα [5]; iv,significant reduction in RXRα mRNA expression
same,9cRA induction of CRBPII,CRBPII,unable to repress 9cRA induction of CRBPII
same,recruitment of Hes1 and HDAC1 (ChIP),RXRα promoter region,promotes specific recruitment of Hes1 and HDAC1 to the RXRα promoter region
same,LCA-mediated serum ALT increase and liver damage,[6],failed to promote LCA-mediated increases of serum ALT levels or enhance liver damage
same,"serum ALT levels, agent alone",[6],did not significantly increase serum ALT levels
same,RXRα protein levels in IRF3^−/− BMMs,RXRα [7],significantly higher than in WT or IFNAR^−/− BMMs
same,effect on ASA or PCN induction of CYP3A11 mRNA,Cyp3A11 [8],diminished
same,effect on induction of CYP3A11 by PCN,Cyp3A11 [8],blunted the induction of CYP3A11 by PCN
same,prevention of ethanol-promoted APAP induction of serum ALT,"[9]; 20% EtOH 5 days, polyI:C Day 3 and Day 5, APAP 175 mg/kg, FIG. 2C",effective at preventing ethanol from promoting APAP induction of serum ALT levels
same,prevention of PCN/APAP induction of serum ALT,"[9]; polyI:C 100 μg i.v. and PCN 75 mg/kg 24 h before APAP 175 mg/kg, FIG. 2B",capable of preventing PCN/APAP induction of serum ALT levels
same,prevention of APAP-induced serum ALT increase,"[9]; polyI:C 100 μg i.v. pretreatment, APAP 350 mg/kg, wildtype and IRF3-deficient mice, FIG. 2A",effectively prevented such increase in serum ALT only when IRF3 was present
same,"hepatotoxicity, agent alone",[10],did not cause significant hepatotoxicity
